# From patent US7972828B2, “Stabilized compositions of thermostable DNA polymerase and anionic or zwitterionic detergent” (Sigma-Aldrich Co., priority 2006, dated 2011)
# Experiments:
# Type in all cases: biochemical
# Taq DNA polymerase [1] = target: T1, Taq DNA polymerase (Thermus aquaticus, UniProt P19821); test: PCR detergent screening for ability to stabilize Taq DNA polymerase; conditions: for Detergent supported PCR in screening reactions: detergent tested at 5%, 0.5%, 0.05%, 0.005% or 0.0005%
# T1 construct: purchased Sigma Aldrich, St. Louis, Mo
# T1 sequence (P19821 whole entry): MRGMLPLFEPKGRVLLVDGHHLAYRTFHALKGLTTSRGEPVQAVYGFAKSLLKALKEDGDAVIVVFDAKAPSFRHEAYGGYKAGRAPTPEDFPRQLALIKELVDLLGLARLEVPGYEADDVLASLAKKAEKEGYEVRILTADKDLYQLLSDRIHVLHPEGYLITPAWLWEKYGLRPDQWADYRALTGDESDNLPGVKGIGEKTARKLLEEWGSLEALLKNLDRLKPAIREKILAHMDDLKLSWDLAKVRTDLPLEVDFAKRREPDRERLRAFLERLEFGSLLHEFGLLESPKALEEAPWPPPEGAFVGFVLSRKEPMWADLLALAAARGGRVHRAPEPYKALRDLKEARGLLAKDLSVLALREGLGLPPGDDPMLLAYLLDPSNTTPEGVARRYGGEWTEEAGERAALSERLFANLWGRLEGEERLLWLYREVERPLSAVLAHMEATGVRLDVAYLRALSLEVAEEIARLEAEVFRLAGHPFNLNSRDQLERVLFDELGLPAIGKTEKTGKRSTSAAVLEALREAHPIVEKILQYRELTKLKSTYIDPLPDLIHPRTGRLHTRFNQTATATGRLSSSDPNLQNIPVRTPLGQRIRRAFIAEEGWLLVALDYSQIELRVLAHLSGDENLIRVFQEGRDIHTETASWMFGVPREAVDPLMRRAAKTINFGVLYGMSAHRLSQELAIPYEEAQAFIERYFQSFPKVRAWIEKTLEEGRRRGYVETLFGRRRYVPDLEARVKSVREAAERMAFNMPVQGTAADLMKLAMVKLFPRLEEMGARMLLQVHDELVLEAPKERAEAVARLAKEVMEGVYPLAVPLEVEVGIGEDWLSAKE
# Experimental: A PCR assay was used to screen 47 of the potential candidate detergents for their ability to stabilize Taq DNA polymerase. The final concentration of each detergent tested was 5%, 0.5%, 0.05%, 0.005%, or 0.0005%. A forward primer (5′-[…]-3′; SEQ ID No:1) and a reverse primer (5′-[…]-3′; SEQ ID No:2) were designed to amplify a 500 bp fragment of lambda DNA. Each 10 μl reaction contained:
# 1 μl 10 μM Forward Primer
# 1 μl 10 μM Reverse Primer
# 0.1 μl 5 Units/μl Taq DNA polymerase
# The cycling parameters were 94° C. for 15 min and 30 cycles of 94° C. for 30 sec and 70° C. for 30 sec, and a 4° C. hold. For each series of detergents tested, positive control reactions comprising 0.0005% Tween 20 were included, as well as negative control reactions without any detergent. An aliquot of each reaction was resolved by agarose gel electrophoresis.
# Taq DNA polymerase [2] = target: T1, Taq DNA polymerase; test: Long-term stability of Taq formulations with DTT, assessed by PCR; conditions: stored at 25° C. 6 to 40 days, higher concentration of DTT (0.2 mM)
# Experimental: The long-term stability of Taq formulated with either Tween 20, an anionic detergent, or a zwitterionic detergent was compared in the presence of two concentrations of DTT. Taq was formulated with 0.01% or 0.1% Tween 20, 0.1% or 1% poly(ethylene glycol) 4-nonylphenyl 3 sulfopropyl ether potassium salt, or 1% CHAPS. Each formulation was stored in the presence of 0.02 mM DTT or 0.2 mM DTT at 25° C. for periods of time ranging from 6 days to 40 days. The calculated corresponding periods for storage at −20° C. ranged from about 1.5 years to about 10 years (see FIG. 2). The ability of various formulations of Taq to support PCR was assessed using a PCR assay similar to that described in Example 1. The same primers and reactions conditions were used.
# An aliquot of each reaction was resolved by agarose gel electrophoresis.
# Taq DNA polymerase [3] = target: T1, Taq DNA polymerase; test: SYBR Green quantitative real-time PCR amplification efficiency on human genomic DNA; set-up: key to Reaction Efficiencies CD14F: *: No amplification product; key to Ct 14-3-3 / Ct CD14F / Ct HoxA2: cycle at which fluorescence exceeds a defined threshold; conditions: for Efficiency (dilutional efficiency) 14-3-3 / Efficiency (dilutional efficiency) CD14F / Efficiency (dilutional efficiency) HoxA2 / Efficiency (dilutional efficiency) PGK1: slope of serially diluted template plots
# Text: The efficiency of amplification by Taq DNA polymerase in the presence of Tween 20 or the anionic detergent, poly (ethylene glycol) 4-nonylphenyl 3 sulfopropyl ether potassium salt, was compared using SYBR Green quantitative real-time PCR (qPCR) to amplify four different fragments in Msel-digested or intact human genomic DNA. Each reaction comprised 1× Jumpstart Taq Ready mix (Sigma Aldrich, St. Louis, Mo.) formulated with Tween 20 or poly (ethylene glycol) 4-nonylphenyl 3 sulfopropyl ether potassium salt, 1×ROX (reference dye), 0.8×SYBR green, 0.4 μM primers. The template was serially diluted such that reactions contained 25 ng, 2.5 ng, or 0.25 ng of intact DNA or 400 ng, 40 ng, of 4 ng of digested DNA. The cycling profile was 95° C. for 3 min, 35 cycles of 95° C. for 30 sec, 55° C. for 60 sec, and 72° C. for 120 sec.
# Table 2 presents the Ct values (which is the cycle that the fluorescence exceeds a defined threshold value) for each amplified product using the different templates. The ‘no template’ control reactions (for every primer pair) produced no amplicons.
# The efficiency of amplification was derived from the slopes of the serially diluted template amplification plots (dilutional efficiency), and the percent efficiency is also presented in Table 2.
# Individual reaction efficiencies were calculated in an effort to explore the nature of the dilutional efficiency effects. […] That is, reactions with lower amounts of template were less efficiently primed or initiated in the presence of Tween 20 than in the presence of the anionic surfactant. Once the amplification process began, however, the reaction efficiencies were detergent independent.
# Taq DNA polymerase [4] = target: T1, Taq DNA polymerase; test: Specificity of PCR amplification (BsrGIO, SacIO fragments) on agarose gel; conditions: 352 bp and 360 bp fragments, HEK293 genomic DNA
# Experimental: To determine whether amplification in the presence of the anionic detergent, poly (ethylene glycol) 4-nonylphenyl 3-sulfopropyl ether potassium salt, produced less non-specific products, formulations comprising Tween 20 were compared to an anionic detergent formulation. Primers (see Table 4) were designed to amplify a 352 by fragment (BsrGIO) and a 360 by fragment (SacIO) in human genomic DNA. The reactions (50 μl) contained […] HEK293 genomic DNA, […], 1×PCR Buffer, 0.2 mM dNTPs, 0.05 U/μL Taq, and 4% DMSO. Thermocycling parameters were 94° C. for 2 min, 30 cycles of 94° C. for 20 sec, 58° C. for 30 sec, and 72° C. for 80 sec, a final extension at 72° C. for 10 min, and a 4° C. hold.
# Aliquots of each sample were run on an agarose gel (FIG. 3). […] This finding raises the possibility that there may be a multimolecular complex comprising template, primer, detergent, and enzyme, and it is possible that the anionic detergent increased the coulombic repulsion between template/primers and the […].
compound,measurement,setting,value
"C[C@H](CCC(=O)NCCC[N+](C)(C)CCCS(=O)(=O)[O-])[C@H]1CC[C@H]2[C@@H]3[C@H](O)C[C@@H]4C[C@H](O)CC[C@]4(C)[C@@]3(C)C[C@H](O)[C@]12C [CHAPS, 3-[(3-cholamidopropyl)dimethylammonio]-1-propanesulfonate]",Detergent supported PCR in screening reactions,Taq DNA polymerase [1],supported PCR
same,Ability of stored Taq formulation to support PCR,Taq DNA polymerase [2],substantially able to support PCR
"C[C@H](CCC(=O)NCCC[N+](C)(C)CC(O)CS(=O)(=O)[O-])[C@H]1CC[C@H]2[C@@H]3[C@H](O)C[C@@H]4C[C@H](O)CC[C@]4(C)[C@H]3C[C@H](O)[C@]12C (stereo partly shown) [CHAPSO, 3-[(3-cholamidopropyl)dimethylammonio]-2-hydroxy-1-propanesulfonate]",Detergent supported PCR in screening reactions,Taq DNA polymerase [1],supported PCR
nonyl nonoxynol-15 phosphate [Rhodafac RM710],Detergent supported PCR in screening reactions,Taq DNA polymerase [1],supported PCR
same,Amplified products (500 bp lambda DNA fragment) on agarose gel,Taq DNA polymerase [1]; low concentration of the detergent,Amplified products were present
poly (ethylene glycol) 4-nonylphenyl 3-sulfopropyl ether potassium salt [Anionic],Detergent supported PCR in screening reactions,Taq DNA polymerase [1],supported PCR
same,Ability of stored Taq formulation to support PCR,Taq DNA polymerase [2],able to support PCR at all the times tested
same,Ct 14-3-3,"Taq DNA polymerase [3]; Intact DNA, 0.25 ng",30.8
same,Ct CD14F,"Taq DNA polymerase [3]; Intact DNA, 0.25 ng",No Ct
same,Ct HoxA2,"Taq DNA polymerase [3]; Intact DNA, 0.25 ng",30.41
same,Ct PGK1,"Taq DNA polymerase [3]; Intact DNA, 0.25 ng",31.59
same,Ct 14-3-3,"Taq DNA polymerase [3]; Intact DNA, 2.5 ng",27.88
same,Ct CD14F,"Taq DNA polymerase [3]; Intact DNA, 2.5 ng",33.98
same,Ct HoxA2,"Taq DNA polymerase [3]; Intact DNA, 2.5 ng",26.92
same,Ct PGK1,"Taq DNA polymerase [3]; Intact DNA, 2.5 ng",28.33
same,Ct 14-3-3,"Taq DNA polymerase [3]; Intact DNA, 25 ng",24.31
same,Ct CD14F,"Taq DNA polymerase [3]; Intact DNA, 25 ng",28.72
same,Ct HoxA2,"Taq DNA polymerase [3]; Intact DNA, 25 ng",23.33
same,Ct PGK1,"Taq DNA polymerase [3]; Intact DNA, 25 ng",23.62
same,Reaction Efficiencies 14-3-3,"Taq DNA polymerase [3]; Intact DNA, 0.25",98%
same,Reaction Efficiencies CD14F,"Taq DNA polymerase [3]; Intact DNA, 0.25",*
same,Reaction Efficiencies HoxA2,"Taq DNA polymerase [3]; Intact DNA, 0.25",102%
same,Reaction Efficiencies PGK1,"Taq DNA polymerase [3]; Intact DNA, 0.25",97%
same,Reaction Efficiencies 14-3-3,"Taq DNA polymerase [3]; Intact DNA, 2.5",115%
same,Reaction Efficiencies CD14F,"Taq DNA polymerase [3]; Intact DNA, 2.5",124%
same,Reaction Efficiencies HoxA2,"Taq DNA polymerase [3]; Intact DNA, 2.5",102%
same,Reaction Efficiencies PGK1,"Taq DNA polymerase [3]; Intact DNA, 2.5",101%
same,Reaction Efficiencies 14-3-3,"Taq DNA polymerase [3]; Intact DNA, 25",102%
same,Reaction Efficiencies CD14F,"Taq DNA polymerase [3]; Intact DNA, 25",99%
same,Reaction Efficiencies HoxA2,"Taq DNA polymerase [3]; Intact DNA, 25",104%
same,Reaction Efficiencies PGK1,"Taq DNA polymerase [3]; Intact DNA, 25",98%
same,Efficiency (dilutional efficiency) 14-3-3,Taq DNA polymerase [3]; Intact DNA,105%
same,Efficiency (dilutional efficiency) CD14F,Taq DNA polymerase [3]; Intact DNA,26%
same,Efficiency (dilutional efficiency) HoxA2,Taq DNA polymerase [3]; Intact DNA,86%
same,Efficiency (dilutional efficiency) PGK1,Taq DNA polymerase [3]; Intact DNA,63%
same,Ct 14-3-3,"Taq DNA polymerase [3]; Mse-I digested DNA, 4 ng",28.65
same,Ct CD14F,"Taq DNA polymerase [3]; Mse-I digested DNA, 4 ng",No Ct
same,Ct HoxA2,"Taq DNA polymerase [3]; Mse-I digested DNA, 4 ng",29.96
same,Ct PGK1,"Taq DNA polymerase [3]; Mse-I digested DNA, 4 ng",31.38
same,Ct 14-3-3,"Taq DNA polymerase [3]; Mse-I digested DNA, 40 ng",24.86
same,Ct CD14F,"Taq DNA polymerase [3]; Mse-I digested DNA, 40 ng",34.72
same,Ct HoxA2,"Taq DNA polymerase [3]; Mse-I digested DNA, 40 ng",26.47
same,Ct PGK1,"Taq DNA polymerase [3]; Mse-I digested DNA, 40 ng",27.95
same,Ct 14-3-3,"Taq DNA polymerase [3]; Mse-I digested DNA, 400 ng",21.17
same,Ct CD14F,"Taq DNA polymerase [3]; Mse-I digested DNA, 400 ng",30.15
same,Ct HoxA2,"Taq DNA polymerase [3]; Mse-I digested DNA, 400 ng",22.27
same,Ct PGK1,"Taq DNA polymerase [3]; Mse-I digested DNA, 400 ng",23.17
same,Efficiency (dilutional efficiency) 14-3-3,Taq DNA polymerase [3]; Mse-I digested DNA,75%
same,Efficiency (dilutional efficiency) CD14F,Taq DNA polymerase [3]; Mse-I digested DNA,42%
same,Efficiency (dilutional efficiency) HoxA2,Taq DNA polymerase [3]; Mse-I digested DNA,69%
same,Efficiency (dilutional efficiency) PGK1,Taq DNA polymerase [3]; Mse-I digested DNA,58%
same,Reaction Efficiencies 14-3-3,"Taq DNA polymerase [3]; MseI digested DNA, 4 ng",103%
same,Reaction Efficiencies CD14F,"Taq DNA polymerase [3]; MseI digested DNA, 4 ng",*
same,Reaction Efficiencies HoxA2,"Taq DNA polymerase [3]; MseI digested DNA, 4 ng",99%
same,Reaction Efficiencies PGK1,"Taq DNA polymerase [3]; MseI digested DNA, 4 ng",97%
same,Reaction Efficiencies 14-3-3,"Taq DNA polymerase [3]; MseI digested DNA, 40 ng",107%
same,Reaction Efficiencies CD14F,"Taq DNA polymerase [3]; MseI digested DNA, 40 ng",92%
same,Reaction Efficiencies HoxA2,"Taq DNA polymerase [3]; MseI digested DNA, 40 ng",101%
same,Reaction Efficiencies PGK1,"Taq DNA polymerase [3]; MseI digested DNA, 40 ng",102%
same,Reaction Efficiencies 14-3-3,"Taq DNA polymerase [3]; MseI digested DNA, 400 ng",101%
same,Reaction Efficiencies CD14F,"Taq DNA polymerase [3]; MseI digested DNA, 400 ng",99%
same,Reaction Efficiencies HoxA2,"Taq DNA polymerase [3]; MseI digested DNA, 400 ng",100%
same,Reaction Efficiencies PGK1,"Taq DNA polymerase [3]; MseI digested DNA, 400 ng",97%
same,Average efficiency of the three amplicons with efficiencies for both formulations,Taq DNA polymerase [3]; digested templates,67.3%
same,Efficiency compared with the corresponding Tween 20 formulation,Taq DNA polymerase [3]; each amplicon,higher efficiency
same,Ct values compared with Tween 20-containing amplification mixes,Taq DNA polymerase [3]; higher dilutions of template,lower Ct values at higher dilutions
same,Average efficiency of the three amplicons with efficiencies for both formulations,Taq DNA polymerase [3]; intact templates,84.7%
same,"Non-specific, secondary amplification products compared with standard Tween 20 formulations",Taq DNA polymerase [4],"fewer non-specific, secondary amplification products"
poly(ethylene glycol) monolaurate,Detergent supported PCR in screening reactions,Taq DNA polymerase [1],supported PCR
polyoxyethylene(150)dinonylphenyl ether [Igepal® DM-970],Detergent supported PCR in screening reactions,Taq DNA polymerase [1],supported PCR
